Where two headings read alike, the source gives them in different places.
Key:
[1] = biological target: human ERα (Homo sapiens (Human), UniProt P03372); test: Fluorescence polarization competitive binding assay, ERα; details: for ERα RBA (%): percent of the binding affinity of 17β-estradiol (RBA = 100%)
[2] = biological target: human ERβ (Homo sapiens (Human), UniProt Q92731); test: Fluorescence polarization competitive binding assay, ERβ; details: for ERβ RBA (%): percent of the binding affinity of 17β-estradiol (RBA = 100%)
[3] = system: adult ovariectomized rats; test: Uterine weight in adult ovariectomized rats; details: 6 mg/kg BW
[4] = system: primary hippocampal neurons; test: Glutamate-induced neurotoxicity, LDH release; details: for LDH Release (% of Control): 48 h pretreatment, 5-min glutamate, LDH 24 h later; for concentration that elicited the maximal neuroprotective effects: from the dose-response analyses, administered alone
[5] = system: adult ovariectomized rats; details: rat, in vivo
[6] = 2 subcutaneous injections once daily, 24 h after 2nd injection
[7] = compared with vehicle-treated control (set as 0)

| SMILES | LDH Release (% of Control) ([4]; 1 nM) | LDH Release (% of Control) ([4]; 10 nM) | LDH Release (% of Control) ([4]; 100 nM) | LDH Release (% of Control) ([4]; 1 μM) | LDH Release (% of Control) ([4]; 10 μM) | concentration that elicited the maximal neuroprotective effects [4] [nM] | further results |
| --- | --- | --- | --- | --- | --- | --- | --- |
| CC(=O)[C@H]1CC[C@H]2[C@@H]3CCC4=CC(=O)CC[C@]4(C)[C@H]3CC[C@]12C [Progesteron, progesterone, reference compound] |  |  |  |  |  |  | binding to ERα [1]: does not bind; binding to ERβ [2]: does not bind |
| O=C1Oc2cc(O)cc(Cc3ccccc3)c2CC1c1ccc(Cl)cc1 (stereo not shown) [Compd 3] |  |  |  |  |  |  | IC50 ([2]; Table 1, read-out: IC50 ERβ): 0.25 µM |
| O=c1c(-c2ccc(O)cc2)coc2cc(O)cc(O)c12 [genistein] | 361.03 ± 7.71 % of Control | 350.02 ± 8.21 % of Control | 347.24 ± 16.96 % of Control | 356.79 ± 11.15 % of Control | 377.84 ± 8.45 % of Control | 100 | Uterine Dry Weight [3, 6]: 28.14 ± 2.04 mg; Uterine Wet Weight [3, 6]: 144.11 ± 10.18 mg; Uterine Dry Weight Increase (%) [3, 7]: 6.49 ± 7.71%; Uterine Wet Weight Increase (%) [3, 7]: 12.92 ± 7.97% |
| C[C@]12CC[C@@H]3c4ccc(O)cc4CC[C@H]3[C@@H]1CC[C@@H]2O [17β-Estradiol] |  |  |  |  |  |  | impact on uterine weight [5]: markedly increased |
| O=c1nc2n(c3cc4ccccc4cc13)Cc1ccccc1-2 [Compd 12] |  |  |  |  |  |  | binding to ERβ [2]: either very weak or no binding |
| Oc1ccc([C@H]2COc3cc(O)ccc3C2)cc1 [Equol, equol] | 453.50 ± 23.37 % of Control | 403.78 ± 17.02 % of Control | 331.59 ± 9.67 % of Control | 381.80 ± 12.01 % of Control | 390.21 ± 9.40 % of Control | 100 | IC50 [1]: 5.88 µM; ERα RBA (%) [1]: 0.4306%; Selectivity (β/α) ([2]; Table 2): 10.09; IC50 ([2]; Table 2, full-length human ERβ, read-out: ERβ IC50): 0.582 µM; ERβ RBA (%) [2]: 5.571% |
| O=c1c(-c2ccc(O)cc2)coc2cc(O)ccc12 [Daidzein, daidzein] | 338.39 ± 16.49 % of Control | 333.98 ± 9.10 % of Control | 301.42 ± 7.70 % of Control | 318.49 ± 15.92 % of Control | 325.41 ± 26.12 % of Control | 100 | ERα RBA (%) [1]: 0.0949%; ERβ RBA (%) [2]: 1.867% |

Source: patent US8552057B2, “Phytoestrogenic formulations for alleviation or prevention of neurodegenerative diseases” (priority 2006, dated 2013)
